Experimental data taken from article PMC5507300, “Antibacterial small molecules targeting the conserved TOPRIM domain of DNA gyrase” (PLoS ONE, 2017).
In brackets after ≈: the same amount, converted by molar mass. Several values for one entry are separate records, joined by “and”; a condition that tells them apart may be missing. Identical values can stand only once. Like-named read-outs stand apart in the source and are kept apart here.

Columns and labels:
Format in all cases: cell-based
[1] = tested on: E. coli GYR103 GyrB L446Q; test: microbe, parasite or virus in culture; details: Escherichia coli
Source text: (§1) E. coli HS151 (ΔtolC) has been described previously. Gyrase inhibitor-resistant isolates (GYR101-108) were derived by selection for spontaneous resistance to MRL-770 or MRL-423 (Fig 1) in E. coli HS151 as described below. E. coli BW25113 and the Keio gene deletion collection based on BW25113 [25] were obtained from Thermo Fisher Scientific (Waltham, MA) and described in [26]. The plasmid-borne FQ resistance determinant, qnrVC3 [27], was kindly provided by D. Hooper (Massachusetts General Hospital). MB9796 (A. baumannii) is a derivative of MB9797 (ATCC19606) lacking lipopolysaccharide. The efflux-defective P. aeruginosa strain MB5890 (CB398) is a derivative of MB5919 (PAO1). MB2884 (E. coli) and CL15245 (K. pneumoniae) are clinical isolates from the Merck & Co., Inc., Kenilworth, NJ, USA, strain collection. S. aureus COL is a methicillin-resistant clinical isolate.
(§2) Compound doubling dilutions were prepared in 100% DMSO (Sigma Aldrich) and 2 μL of each dilution was transferred to a 96-well plate with lid (Thermo Scientific). Inoculum for all MIC testing was prepared using the BBL Prompt Inoculation System (Becton Dickinson, Franklin Lakes, NJ USA) as described by the manufacturer to produce a suspension of cells at approximately 1.5 x 10^8 colony forming units (CFU)/mL [34–36] and a further dilution (1:1000) was made into cation adjusted Mueller-Hinton broth (CAMH broth, Becton-Dickinson). One hundred μL of this inoculum were then transferred to each well of the 96-well plate containing diluted compound (above). Plates were covered and incubated overnight (18 hrs.) at 37°C.
After the agar solidified, 5 μL of a saturated bacterial culture, grown in CAMH broth, were dispensed on the agar surface and allowed to dry at room temperature. […] To select for resistance, a 100 mm petri dish was filled with 25 mL CAMH agar containing 8 μg/mL MRL-770 or 0.5 μg/mL MRL-423 (Fig 1). The cells in 1 mL of an overnight culture of E. coli HS151 (~10^9 CFU/mL) were concentrated by centrifugation and spread onto the surface of an MRL-770 or MRL-423 containing plate. After the surface dried at room temperature the plate was incubated at 37°C overnight. Any colonies that arose were counted and an approximate frequency of resistance was calculated after confirming resistance by restreaking on media containg compound as well as measuring MICs (see Results). Genomic DNA from the parent strain (E. coli HS151) and purified (restreaked) resistant isolates was obtained with a GeneJET genomic DNA purification kit according to the manufacturer’s instructions (Fisher Scientific). Assembled whole genome mutant sequences were then compared to the parent strain and polymorphisms were identified as described.

[2] = tested on: S. aureus (MRSA) COL; test: Broth microdilution MIC, S. aureus COL; details: Staphylococcus aureus, MRSA
Source text: as §1, §2

[3] = tested on: P. aeruginosa(effluxΔ) MB5890; test: microbe, parasite or virus in culture; details: Pseudomonas aeruginosa
Source text: (§3) E. coli HS151 (ΔtolC) has been described previously. […] E. coli BW25113 and the Keio gene deletion collection based on BW25113 [25] were obtained from Thermo Fisher Scientific (Waltham, MA) and described in [26]. The plasmid-borne FQ resistance determinant, qnrVC3 [27], was kindly provided by D. Hooper (Massachusetts General Hospital). […] MB2884 (E. coli) and CL15245 (K. pneumoniae) are clinical isolates from the Merck & Co., Inc., Kenilworth, NJ, USA, strain collection. S. aureus COL is a methicillin-resistant clinical isolate.
as §2

[4] = tested on: E. coli HS151 (ΔtolC); test: microbe, parasite or virus in culture; details: Escherichia coli
Source text: as §3, §2

[5] = tested on: E. coli MB2884 (clinical isolate); test: Broth microdilution MIC, E. coli MB2884; details: Escherichia coli
Source text: as §3, §2

[6] = tested on: E. coli CIP101 GyrA D87N; test: microbe, parasite or virus in culture; details: Escherichia coli
Method: as §2

[7] = tested on: A. baumannii ΔlpxC MB9796; test: Broth microdilution MIC, A. baumannii MB9796; details: Acinetobacter baumannii
Source text: as §1, §2

[8] = tested on: K. pneumoniae CL15245 (clinical isolate); test: Broth microdilution MIC, K. pneumoniae CL15245; details: Klebsiella pneumoniae
Source text: as §3, §2

[9] = tested on: P. aeruginosa MB5919 (PAO1); test: Broth microdilution MIC, P. aeruginosa MB5919; details: Pseudomonas aeruginosa
Source text: as §3, §2

[10] = tested on: HeLa Cell; test: HeLa cell cytotoxicity; details: for EC50: Homo sapiens, HeLa, Average value (n = 2), cytotoxicity; for Fold above MIC: HeLa EC50 relative to MIC for E. coli HS151
[11] = tested on: A. baumanii MB9797 (ATCC19606); test: Broth microdilution MIC, A. baumannii MB9797; details: Acinetobacter baumannii
Source text: as §1, §2

[12] = tested on: E. coli GYR108 GyrB L470I/V467L; test: microbe, parasite or virus in culture; details: Escherichia coli
Source text: as §3, §2
(§4) After the agar solidified, 5 μL of a saturated bacterial culture, grown in CAMH broth, were dispensed on the agar surface and allowed to dry at room temperature. […] After the surface dried at room temperature the plate was incubated at 37°C overnight. […] Genomic DNA from the parent strain (E. coli HS151) and purified (restreaked) resistant isolates was obtained with a GeneJET genomic DNA purification kit according to the manufacturer’s instructions (Fisher Scientific). Assembled whole genome mutant sequences were then compared to the parent strain and polymorphisms were identified as described.

[13] = tested on: E. coli GYR105 GyrB T469K; test: microbe, parasite or virus in culture; details: Escherichia coli
Source text: as §3, §2, §4

[14] = tested on: E. coli GYR102 GyrB E466EV; test: microbe, parasite or virus in culture; details: Escherichia coli
Source text: as §3, §2, §4

[15] = tested on: E. coli GYR104 GyrB L470I; test: microbe, parasite or virus in culture; details: Escherichia coli
Source text: as §3, §2, §4

[16] = tested on: E. coli GYR101 GyrB F513L; test: microbe, parasite or virus in culture; details: Escherichia coli
Source text: as §3, §2, §4

[17] = tested on: E. coli GYR107 GyrB F513L/L422V; test: microbe, parasite or virus in culture; details: Escherichia coli
Source text: as §3, §2, §4

[18] = tested on: E. coli GYR106 GyrB F513L/A468V; test: microbe, parasite or virus in culture; details: Escherichia coli
Source text: as §3, §2, §4

[19] = Table 2, HS151, GyrB mutation none
[20] = read-out: E. coli HS151 MIC, S1 Table

| Structure (SMILES) | MIC [1] [µg/mL] | MIC [2] [µg/mL] | MIC [3] [µg/mL] | MIC ([4]; Table 1, HS151 E. coli ΔtolC) [µg/mL] | MIC [4, 19] [µg/mL] | MIC [4, 20] [µM] | MIC [5] [µg/mL] | MIC [6] [µg/mL] | MIC [7] [µg/mL] | MIC [8] [µg/mL] | MIC [9] [µg/mL] | EC50 [10] [µM] | MIC [11] [µg/mL] | MIC [12] [µg/mL] | MIC [13] [µg/mL] | MIC [14] [µg/mL] | MIC [15] [µg/mL] | MIC [16] [µg/mL] | MIC [17] [µg/mL] | MIC [18] [µg/mL] | further results |
| --- | --- | --- | --- | --- | --- | --- | --- | --- | --- | --- | --- | --- | --- | --- | --- | --- | --- | --- | --- | --- | --- |
| Cn1ncc2cc(-c3cnnn3C3CCN(C(=O)Nc4cc(Cl)cc(Cl)c4)CC3)ccc21 [MRL-423] | 0.5 (≈ 1.06 µM) | > 64 | 1 (≈ 2.13 µM) | 0.25 | 0.25 | 0.53 | > 64 | 0.25 (≈ 0.532 µM) | 0.5 (≈ 1.06 µM) | > 64 | > 64 | 27.1 | > 64 | > 64 | 1 (≈ 2.13 µM) | > 64 | 1 (≈ 2.13 µM) | 2 (≈ 4.25 µM) | > 64 | > 64 | MIC ([4]; Table 3, HS151): 0.25 µg/mL |
| Cn1ncc2cc(-c3nnnn3C3CCN(C(=O)Nc4ccc(Cl)c(Cl)c4)CC3)ccc21 [MRL-1082] | 0.0625 (≈ 0.133 µM) | > 64 | 0.25 (≈ 0.53 µM) | 0.0625 | 0.0625 | 0.13 | > 64 | 0.125 (≈ 0.265 µM) | 0.5 (≈ 1.06 µM) | > 64 | > 64 | 18.2 | > 64 | 2 (≈ 4.24 µM) | 0.25 (≈ 0.53 µM) | 8 (≈ 17 µM) | 0.25 (≈ 0.53 µM) | > 64 | > 64 | > 64 | MIC ([4]; Fig 4 legend, E. coli HS151): 0.0625 µg/mL; Fold above MIC [10]: 140 fold |
| COc1ccc(C)cc1NC(=O)N1CCC(n2nncc2-c2ccc3c(cnn3C)c2)CC1 [MRL-770] | > 64 | > 64 | 4 (≈ 8.98 µM) | 2 | 2 | 4.5 | > 64 | 2 (≈ 4.49 µM) | 4 (≈ 8.98 µM) | > 64 | > 64 | > 100 | > 64 | > 64 | 1 (≈ 2.24 µM) | > 64 | > 64 | > 64 | > 64 | > 64 | MIC ([4]; read-out: minimum inhibitory concentration (MIC), quoted in text with macromolecule labeling in E. coli JL553, strain not named at place, value equals HS151): 4.5 µM and 2 µg/mL; Fold above MIC [10]: > 22 fold |
